One may read the IC50 as the concentration at which inhibition is half-maximal.

For the first test, the target named is NAE (heterodimer of APPBP1 and UBA3) (Homo sapiens (Human), UniProt Q8TBC4). Put plainly: Nedd8 conjugation inhibitory activity (AlphaScreen assay). The format is biochemical. To be noted: purified NAE, GST-UBC12, Biotin-Nedd8, ATP. In general terms: In Alpha technology, singlet oxygen from a donor bead excites a nearby acceptor bead.
NAE (heterodimer of APPBP1 and UBA3), sequence (Q8TBC4 whole entry): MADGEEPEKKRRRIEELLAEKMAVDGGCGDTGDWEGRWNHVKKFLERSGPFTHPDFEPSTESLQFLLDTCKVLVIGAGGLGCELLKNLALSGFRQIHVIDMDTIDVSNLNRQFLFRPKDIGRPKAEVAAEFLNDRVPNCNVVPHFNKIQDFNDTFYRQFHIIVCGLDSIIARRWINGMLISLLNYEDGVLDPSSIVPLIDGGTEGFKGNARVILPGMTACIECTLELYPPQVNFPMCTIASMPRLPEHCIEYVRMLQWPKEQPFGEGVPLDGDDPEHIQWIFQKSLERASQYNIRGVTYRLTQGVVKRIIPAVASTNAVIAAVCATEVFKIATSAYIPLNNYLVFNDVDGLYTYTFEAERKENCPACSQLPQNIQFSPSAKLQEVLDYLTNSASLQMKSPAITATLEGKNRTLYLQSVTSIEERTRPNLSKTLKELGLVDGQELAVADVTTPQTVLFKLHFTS
NAE (heterodimer of APPBP1 and UBA3), sequence (Q13564 whole entry partner): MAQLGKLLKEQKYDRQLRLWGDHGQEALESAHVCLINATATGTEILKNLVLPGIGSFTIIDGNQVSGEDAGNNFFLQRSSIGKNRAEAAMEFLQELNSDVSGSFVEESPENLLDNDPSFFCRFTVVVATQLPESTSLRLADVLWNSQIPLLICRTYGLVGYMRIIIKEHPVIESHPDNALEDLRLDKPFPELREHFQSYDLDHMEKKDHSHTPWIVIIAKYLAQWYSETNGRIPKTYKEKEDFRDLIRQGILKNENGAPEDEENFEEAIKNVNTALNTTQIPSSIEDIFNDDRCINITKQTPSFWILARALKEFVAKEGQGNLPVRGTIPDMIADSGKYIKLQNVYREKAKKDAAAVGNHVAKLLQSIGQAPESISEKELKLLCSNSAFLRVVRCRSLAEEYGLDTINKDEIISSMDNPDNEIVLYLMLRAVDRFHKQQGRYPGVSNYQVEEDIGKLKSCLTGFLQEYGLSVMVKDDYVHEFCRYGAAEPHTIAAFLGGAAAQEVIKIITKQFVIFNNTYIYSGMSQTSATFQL
Take `Nc1ncnc2c1c(C#Cc1ncc(OCc3ccccc3)cn1)cn2[C@@H]1O[C@H](CNS(N)(=O)=O)[C@@H](O)[C@H]1O` [Example 76, 4-Amino-5-[2-(5-benzyloxypyrimidin-2-yl)ethynyl]-7-[(2R,3R,4S,5R)-3,4-dihydroxy-5-[(sulfamoylamino)methyl]tetrahydrofuran-2-yl]pyrrolo[2,3-d]pyrimidine]: the IC50 came out at 0.0051 µM.

Molecule `Nc1ncnc2c1c(C#Cc1ccccn1)cn2[C@@H]1O[C@H](CNS(N)(=O)=O)[C@@H](O)[C@H]1O` [Example 44, 4-Amino-7-[(2R,3R,4S,5R)-3,4-dihydroxy-5-[(sulfamoylamino)methyl]tetrahydrofuran-2-yl]-5-[2-(2-pyridyl)ethynyl]pyrrolo[2,3-d]pyrimidine] gave a 50% inhibitory concentration (IC50) of 0.029 µM. `CSc1ccccc1C#Cc1cn([C@@H]2O[C@H](CNS(N)(=O)=O)[C@@H](O)[C@H]2O)c2ncnc(N)c12` [Example 89, 4-Amino-7-[(2R,3R,4S,5R)-3,4-dihydroxy-5-[(sulfamoylamino)methyl]tetrahydrofuran-2-yl]-5-[2-(2-methylsulfanylphenyl)ethynyl]pyrrolo[2,3-d]pyrimidine] registered an IC50 of 0.011 µM. In turn, `Nc1ncnc2c1c(C#Cc1c(F)cccc1S(N)(=O)=O)cn2[C@@H]1O[C@H](CNS(N)(=O)=O)[C@@H](O)[C@H]1O` [Example 84, 2-[2-[4-Amino-7-[(2R,3R,4S,5R)-3,4-dihydroxy-5-[(sulfamoylamino)methyl]tetrahydrofuran-2-yl]pyrrolo[2,3-d]pyrimidin-5-yl]ethynyl]-3-fluoro-benzenesulfonamide] had an IC50 of 0.0097 µM. In turn, `Nc1ncnc2c1c(C#Cc1c(F)cc(N3CCC(O)CC3)cc1F)cn2[C@@H]1C[C@H](CNS(N)(=O)=O)[C@@H](O)[C@H]1O` [Example 119, 4-Amino-5-[2-[2,6-difluoro-4-(4-hydroxy-1-piperidyl)phenyl]ethynyl]-7-[(1R,2S,3R,4R)-2,3-dihydroxy-4-[(sulfamoylamino)methyl]cyclopentyl]pyrrolo[2,3-d]pyrimidine] displayed an IC50 of 0.0042 µM. This IC50 is about 2.3-fold lower than that of the molecule before. In turn, `CCS(=O)(=O)c1cc(N2CC[C@@H](O)C2)cc(F)c1C#Cc1cn([C@@H]2O[C@H](CNS(N)(=O)=O)[C@@H](O)[C@H]2O)c2ncnc(N)c12` [Example 72, 4-Amino-7-[(2R,3R,4S,5R)-3,4-dihydroxy-5-[(sulfamoylamino)methyl]tetrahydrofuran-2-yl]-5-[2-[2-ethylsulfonyl-6-fluoro-4-[(3R)-3-hydroxypyrrolidin-1-yl]phenyl]ethynyl]pyrrolo[2,3-d]pyrimidine] showed an IC50 of 0.0044 µM. This IC50 and that of the molecule before are within 1.5-fold of each other. The molecule `Nc1ncnc2c1c(C#Cc1cccc3cccnc13)cn2[C@@H]1C[C@H](CNS(N)(=O)=O)[C@@H](O)[C@H]1O` [Example 96, 8-[2-[4-Amino-7-[(1R,2S,3R,4R)-2,3-dihydroxy-4-[(sulfamoylamino)methyl]cyclopentyl]pyrrolo[2,3-d]pyrimidin-5-yl]ethynyl]quinoline] had an IC50 of 0.0092 µM. For `Cc1ccc(Cn2cc(-c3cn([C@@H]4C[C@H](COS(N)(=O)=O)[C@@H](O)C4)c4ncnc(N)c34)cn2)cc1C` [Example 138, [(1R,2S,4R)-4-[4-Amino-5-[1-[(3,4-dimethylphenyl)methyl]pyrazol-4-yl]pyrrolo[2,3-d]pyrimidin-7-yl]-2-hydroxy-cyclopentyl]methyl sulfamate], the half-maximal inhibitory concentration (IC50) amounted to 0.0065 µM. The same measure, in the same setting: the result for `Nc1ccc(C#Cc2cn([C@@H]3O[C@H](CNS(N)(=O)=O)[C@@H](O)[C@H]3O)c3ncnc(N)c23)c(F)c1` [Example 20, 4-Amino-5-[2-(4-amino-2-fluoro-phenyl)ethynyl]-7-[(2R,3R,4S,5R)-3,4-dihydroxy-5-[(sulfamoylamino)methyl]tetrahydrofuran-2-yl]pyrrolo[2,3-d]pyrimidine] reads 0.0091 µM; that for `Nc1ncnc2c1c(C#Cc1c(F)cc(N3CCC(=O)CC3)cc1F)cn2[C@@H]1O[C@H](CNS(N)(=O)=O)[C@@H](O)[C@H]1O` [Example 42, 4-Amino-5-[2-[2,6-difluoro-4-(4-oxo-1-piperidyl)phenyl]ethynyl]-7-[(2R,3R,4S,5R)-3,4-dihydroxy-5-[(sulfamoylamino)methyl]tetrahydrofuran-2-yl]pyrrolo[2,3-d]pyrimidine], 0.0043 µM. Molecule `Nc1ncnc2c1c(C#CC1CCc3ccccc31)cn2[C@@H]1O[C@H](CNS(N)(=O)=O)[C@@H](O)[C@H]1O` (stereo partly drawn) [Example 21, 4-Amino-7-[(2R,3R,4S,5R)-3,4-dihydroxy-5-[(sulfamoylamino)methyl]tetrahydrofuran-2-yl]-5-(2-indan-1-ylethynyl)pyrrolo[2,3-d]pyrimidine] had an IC50 of 0.015 µM.

In the case of `Nc1ncnc2c1c(C#Cc1cccc3c1S(=O)(=O)CC3)cn2[C@@H]1C[C@H](CNS(N)(=O)=O)[C@@H](O)[C@H]1O` [Example 117, 4-Amino-7-[(1R,2S,3R,4R)-2,3-dihydroxy-4-[(sulfamoylamino)methyl]cyclopentyl]-5-[2-(1,1-dioxo-2,3-dihydrobenzothiophen-7-yl)ethynyl]pyrrolo[2,3-d]pyrimidine], the IC50 was 0.0043 µM. As for `Nc1ncnc2c1c(C#Cc1c(F)cc(OCn3nccn3)cc1F)cn2[C@@H]1O[C@H](CNS(N)(=O)=O)[C@@H](O)[C@H]1O` [Example 67, 4-Amino-5-[2-[2,6-difluoro-4-(triazol-2-ylmethoxy)phenyl]ethynyl]-7-[(2R,3R,4S,5R)-3,4-dihydroxy-5-[(sulfamoylamino)methyl]tetrahydrofuran-2-yl]pyrrolo[2,3-d]pyrimidine], the IC50 was 0.0085 µM. Compared with the last molecule, the IC50 is about 2-fold higher. Turning to `Nc1ncnc2c1c(C#Cc1c(F)ccnc1F)cn2[C@@H]1O[C@H](CNS(N)(=O)=O)[C@@H](O)[C@H]1O` [Example 69, 4-Amino-5-[2-(2,4-difluoro-3-pyridyl)ethynyl]-7-[(2R,3R,4S,5R)-3,4-dihydroxy-5-[(sulfamoylamino)methyl]tetrahydrofuran-2-yl]pyrrolo[2,3-d]pyrimidine], the concentration for half-maximal inhibition (IC50) is 0.015 µM. For the molecule `Nc1ncnc2c1c(C#Cc1ncccc1F)cn2[C@@H]1O[C@H](CNS(N)(=O)=O)[C@@H](O)[C@H]1O` [Example 88, 4-Amino-7-[(2R,3R,4S,5R)-3,4-dihydroxy-5-[(sulfamoylamino)methyl]tetrahydrofuran-2-yl]-5-[2-(3-fluoro-2-pyridyl)ethynyl]pyrrolo[2,3-d]pyrimidine], the midpoint of inhibition, the IC50, lay at 0.018 µM. This IC50 and that of the molecule before are within 1.5-fold of each other. The molecule `Nc1ncnc2c1c(C#Cc1c(F)cc(N3CCSCC3)cc1F)cn2[C@@H]1O[C@H](CNS(N)(=O)=O)[C@@H](O)[C@H]1O` [Example 37, 4-[4-[2-[4-Amino-7-[(2R,3R,4S,5R)-3,4-dihydroxy-5-[(sulfamoylamino)methyl]tetrahydrofuran-2-yl]pyrrolo[2,3-d]pyrimidin-5-yl]ethynyl]-3,5-difluoro-phenyl]thiomorpholine] displayed an IC50 of 0.011 µM. With `CSc1cccc(F)c1C#Cc1cn([C@@H]2C=C(CNS(N)(=O)=O)[C@@H](O)[C@H]2O)c2ncnc(N)c12` [Example 130, 4-Amino-7-[(1R,4R,5S)-4,5-dihydroxy-3-[(sulfamoylamino)methyl]cyclopent-2-en-1-yl]-5-[2-(2-fluoro-6-methylsulfanyl-phenyl)ethynyl]pyrrolo[2,3-d]pyrimidine], the concentration for half-maximal inhibition (IC50) turned out to be 0.004 µM.

In a further test the target is carbonic anhydrase II (Homo sapiens (Human), UniProt P00918). Put plainly: Carbonic anhydrase II enzyme activity inhibition (4-NPA esterase activity). The format is biochemical. To be noted: 4-nitrophenyl acetate esterase activity, absorbance at 405 nm.
The molecule `Nc1ncnc2c1c(C#Cc1ccc(OCc3ccccc3)cc1)cn2[C@@H]1O[C@H](CNS(N)(=O)=O)[C@@H](O)[C@H]1O` [Example 3, 4-Amino-5-[2-(4-benzyloxyphenyl)ethynyl]-7-[(2R,3R,4S,5R)-3,4-dihydroxy-5-[(sulfamoylamino)methyl]tetrahydrofuran-2-yl]pyrrolo[2,3-d]pyrimidine] had an IC50 above 1 µM.

`Nc1ncnc2c1c(C#Cc1cccc3ccccc13)cn2[C@@H]1O[C@H](CNS(N)(=O)=O)[C@@H](O)[C@H]1O` [Example 6, 4-Amino-7-[(2R,3R,4S,5R)-3,4-dihydroxy-5-[(sulfamoylamino)methyl]tetrahydrofuran-2-yl]-5-[2-(1-naphthyl)ethynyl]pyrrolo[2,3-d]pyrimidine]: the IC50 is above 1 µM. The molecule `Nc1ncnc2c1c(C#CCc1ccccc1F)cn2[C@@H]1O[C@H](CNS(N)(=O)=O)[C@@H](O)[C@H]1O` [Example 36, 4-Amino-7-[(2R,3R,4S,5R)-3,4-dihydroxy-5-[(sulfamoylamino)methyl]tetrahydrofuran-2-yl]-5-[3-(2-fluorophenyl)prop-1-ynyl]pyrrolo[2,3-d]pyrimidine] registered an IC50 above 1 µM. As to `Nc1ncnc2c1c(C#Cc1c(F)cc(N3CC(O)C3)cc1F)cn2[C@@H]1O[C@H](CNS(N)(=O)=O)[C@@H](O)[C@H]1O` [Example 39, 4-Amino-5-[2-[2,6-difluoro-4-(3-hydroxyazetidin-1-yl)phenyl]ethynyl]-7-[(2R,3R,4S,5R)-3,4-dihydroxy-5-[(sulfamoylamino)methyl]tetrahydrofuran-2-yl]pyrrolo[2,3-d]pyrimidine], the IC50 was above 1 µM. As to `Nc1ncnc2c1c(C#Cc1ccccc1OC(F)(F)F)cn2[C@@H]1O[C@H](CNS(N)(=O)=O)[C@@H](O)[C@H]1O` [Example 14, 4-Amino-7-[(2R,3R,4S,5R)-3,4-dihydroxy-5-[(sulfamoylamino)methyl]tetrahydrofuran-2-yl]-5-[2-[2-(trifluoromethoxy)phenyl]ethynyl]pyrrolo[2,3-d]pyrimidine], the IC50 was above 1 µM. On to `Nc1ncnc2c1c(C#CCC1CCCCC1)cn2[C@@H]1O[C@H](CNS(N)(=O)=O)[C@@H](O)[C@H]1O` [Example 50, 4-Amino-5-(3-cyclohexylprop-1-ynyl)-7-[(2R,3R,4S,5R)-3,4-dihydroxy-5-[(sulfamoylamino)methyl]tetrahydrofuran-2-yl]pyrrolo[2,3-d]pyrimidine], for which the half-inhibitory concentration (IC50) was above 1 µM.

For the molecule `Nc1ncnc2c1c(-c1coc(-c3ccccc3)n1)cn2[C@@H]1O[C@H](CNS(N)(=O)=O)[C@@H](O)[C@H]1O` [Example 12, 4-[4-Amino-7-[(2R,3R,4S,5R)-3,4-dihydroxy-5-[(sulfamoylamino)methyl]tetrahydrofuran-2-yl]pyrrolo[2,3-d]pyrimidin-5-yl]-2-phenyl-oxazol], the half-maximal inhibitory concentration (IC50) is above 1 µM.

The record behind these values is patent US9963456B2, “Pyrrolopyrimidine compound or salt thereof and compositions containing the pyrrolopyrimidine compound or salt thereof” (TAIHO PHARMACEUTICAL CO., LTD., priority 2014, dated 2018).
